The text below walks through data of patent US10118916B2, “Modulators of cystic fibrosis transmembrane conductance regulator protein” (AbbVie S.à.r.l., priority 2016, dated 2018).

As a reminder, the EC50 is the concentration at which the effect is half-maximal. A higher EC50 goes with a less potent agent.

Structures are written as SMILES.

The target of the assay is T1, F508delCFTR (Homo sapiens, UniProt P13569, DEL508-508).
T1 construct: expressed in transfected cells; host or cells: CFBE41o- (human lung derived epithelial cell line), doxycycline-inducible
T1 sequence (P13569 with tags, fused parts or gaps DEL508-508): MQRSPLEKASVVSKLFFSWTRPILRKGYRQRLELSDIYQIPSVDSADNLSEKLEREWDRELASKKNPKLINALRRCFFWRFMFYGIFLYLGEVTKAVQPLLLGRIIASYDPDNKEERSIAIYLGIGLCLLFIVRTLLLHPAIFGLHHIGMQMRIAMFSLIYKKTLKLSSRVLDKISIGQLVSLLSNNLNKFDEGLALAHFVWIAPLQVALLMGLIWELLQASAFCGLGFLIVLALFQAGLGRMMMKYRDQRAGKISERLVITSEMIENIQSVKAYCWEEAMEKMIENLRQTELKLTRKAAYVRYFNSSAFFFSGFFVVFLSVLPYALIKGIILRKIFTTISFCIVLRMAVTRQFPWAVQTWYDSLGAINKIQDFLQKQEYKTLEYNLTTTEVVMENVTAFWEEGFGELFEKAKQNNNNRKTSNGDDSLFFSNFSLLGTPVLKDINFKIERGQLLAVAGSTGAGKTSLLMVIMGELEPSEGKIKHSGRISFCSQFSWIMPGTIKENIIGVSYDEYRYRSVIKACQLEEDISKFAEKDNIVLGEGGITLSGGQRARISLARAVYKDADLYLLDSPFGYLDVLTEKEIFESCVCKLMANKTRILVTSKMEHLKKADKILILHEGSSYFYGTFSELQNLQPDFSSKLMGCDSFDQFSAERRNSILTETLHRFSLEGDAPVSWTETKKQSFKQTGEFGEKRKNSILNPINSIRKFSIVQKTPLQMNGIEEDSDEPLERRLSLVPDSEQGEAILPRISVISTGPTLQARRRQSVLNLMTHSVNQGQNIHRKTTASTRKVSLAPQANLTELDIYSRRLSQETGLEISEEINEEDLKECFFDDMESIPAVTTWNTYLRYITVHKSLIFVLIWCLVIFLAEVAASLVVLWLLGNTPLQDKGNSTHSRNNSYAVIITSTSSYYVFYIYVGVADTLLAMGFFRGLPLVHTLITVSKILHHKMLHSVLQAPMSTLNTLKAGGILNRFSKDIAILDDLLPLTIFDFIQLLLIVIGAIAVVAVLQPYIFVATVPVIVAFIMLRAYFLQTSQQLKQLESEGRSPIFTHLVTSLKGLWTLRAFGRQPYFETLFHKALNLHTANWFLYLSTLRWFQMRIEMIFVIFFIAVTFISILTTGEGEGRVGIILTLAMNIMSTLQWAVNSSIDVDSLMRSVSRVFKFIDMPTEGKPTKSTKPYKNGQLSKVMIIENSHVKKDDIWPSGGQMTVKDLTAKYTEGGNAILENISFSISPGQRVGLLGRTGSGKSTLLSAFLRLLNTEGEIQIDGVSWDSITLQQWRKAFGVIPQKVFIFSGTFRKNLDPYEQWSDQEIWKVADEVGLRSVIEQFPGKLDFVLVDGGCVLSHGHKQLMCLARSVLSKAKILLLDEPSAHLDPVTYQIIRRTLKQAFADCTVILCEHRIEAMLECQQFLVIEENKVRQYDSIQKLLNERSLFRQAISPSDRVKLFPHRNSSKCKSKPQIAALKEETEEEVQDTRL
As to the kind of experiment: Cell Surface Expression-Horse Radish Peroxidase (CSE-HRP) assay. It is filed as cell-based. The note with it: CFBE41o-F508delCFTR-HRP cells; for EC50: F508delCFTR cell surface expression, luminescence, 18-24 hours at 33° C., highest concentration 20 μM; for Maximum % activity: maximum at any tested concentration, normalized to on-plate positive control (3 μM). Summed up:
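CFBE41o- cells expressing doxycycline-induced (0.5 μg/mL, 72 h at 37 °C) F508delCFTR with HRP in the fourth extracellular loop; compounds 8 points, 3-fold from 20 μM, 18-24 h at 33 °C. Surface HRP measured by luminol luminescence, normalised to DMSO and 3 μM reference corrector; EC50 from variable-slope sigmoidal fit of triplicate plates.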

In the case of `COC(=O)c1cccc([C@H]2C[C@@H](NC(=O)[C@]3(C)CCc4cc(Cl)ccc4O3)c3ccccc3O2)c1` [Example 63, methyl 3-[(2R,4R)-4-{[(2S)-6-chloro-2-methyl-3,4-dihydro-2H-1-benzopyran-2-carbonyl]amino}-3,4-dihydro-2H-1-benzopyran-2-yl]benzoate], the EC50 was more than 20 µM and the Maximum % activity came out at 5.1%.

Take `C[C@@]1(C(=O)N[C@@H]2C[C@H](c3cccc(C(=O)O)c3)Oc3ccccc32)CCc2cc(Cl)ccc2O1` [Example 64, 3-[(2R,4R)-4-{[(2S)-6-chloro-2-methyl-3,4-dihydro-2H-1-benzopyran-2-carbonyl]amino}-3,4-dihydro-2H-1-benzopyran-2-yl]benzoic acid]: the EC50 was more than 20 µM and the Maximum % activity is recorded as 18.0%.

With `C[C@]1(C(=O)N[C@@H]2C[C@H](c3cccc(C(=O)O)c3)Oc3ccccc32)CCc2cc(Cl)ccc2O1` [Example 66, 3-[(2R,4R)-4-{[(2R)-6-chloro-2-methyl-3,4-dihydro-2H-1-benzopyran-2-carbonyl]amino}-3,4-dihydro-2H-1-benzopyran-2-yl]benzoic acid], the EC50 is more than 20 µM and the Maximum % activity was determined as 4.8%.

For `COc1ccc2c(c1)O[C@@H](c1ccc(C(=O)O)cc1)C[C@H]2NC(=O)[C@@]1(C)CCc2cc(Cl)ccc2O1` [Example 67, 4-[(2R,4R)-4-{[(2R)-6-chloro-2-methyl-3,4-dihydro-2H-1-benzopyran-2-carbonyl]amino}-7-methoxy-3,4-dihydro-2H-1-benzopyran-2-yl]benzoic acid], the EC50 is more than 20 µM and the Maximum % activity turned out to be 4.7%.

As to `COc1ccc2c(c1)O[C@@H](c1ccc(C(=O)O)cc1)C[C@H]2NC(=O)C1(C)CCc2cc(OC(F)(F)F)ccc21` (stereo partly drawn) [Example 68, 4-[(2R,4R)-7-methoxy-4-{[1-methyl-5-(trifluoromethoxy)-2,3-dihydro-1H-indene-1-carbonyl]amino}-3,4-dihydro-2H-1-benzopyran-2-yl]benzoic acid], the response was half-maximal at 1.31 µM (EC50) and the Maximum % activity came to 85.0%.

In the case of `COc1ccc2c(c1)CC[C@]2(C)C(=O)N[C@@H]1C[C@H](c2ccc(C(=O)O)cc2)Oc2cc(OC)ccc21` [Example 69, 4-[(2R,4R)-7-methoxy-4-{[(1S)-5-methoxy-1-methyl-2,3-dihydro-1H-indene-1-carbonyl]amino}-3,4-dihydro-2H-1-benzopyran-2-yl]benzoic acid], the half-maximal effective concentration (EC50) was found to be 0.1 µM and the Maximum % activity was determined as 66.1%.

For the compound `COc1ccc2c(c1)O[C@@H](c1ccc(C(=O)O)cc1)C[C@H]2NC(=O)C1(c2ccc(OC(F)(F)F)cc2)CCC1` [Example 70, 4-[(2R,4R)-7-methoxy-4-({1-[4-(trifluoromethoxy)phenyl]cyclobutane-1-carbonyl}amino)-3,4-dihydro-2H-1-benzopyran-2-yl]benzoic acid], the response was half-maximal at 2.21 µM (EC50) and the Maximum % activity is reported as 28.0%.

As for `COc1ccc2c(c1)O[C@@H](c1ccc(C(=O)O)cc1)C[C@H]2NC(=O)C(C)(C)c1ccc2c(c1)CCO2` [Example 71, 4-{(2R,4R)-4-[2-(2,3-dihydro-1-benzofuran-5-yl)-2-methylpropanamido]-7-methoxy-3,4-dihydro-2H-1-benzopyran-2-yl}benzoic acid], the response was half-maximal at 0.12 µM (EC50) and the Maximum % activity came out at 52.0%.

With `COc1ccc2c(c1)O[C@@H](c1ccc(C(=O)O)cc1)C[C@H]2NC(=O)C1(c2ccccc2)CC(F)(F)C1` [Example 72, 4-{(2R,4R)-4-[(3,3-difluoro-1-phenylcyclobutane-1-carbonyl)amino]-7-methoxy-3,4-dihydro-2H-1-benzopyran-2-yl}benzoic acid], the EC50 was more than 20 µM and the Maximum % activity turned out to be 1.4%.

On to `COc1ccc2c(c1)O[C@@H](c1ccc(C(=O)O)cc1)C[C@H]2NC(=O)C(C)(C)Oc1cccc(Cl)c1` [Example 73, 4-{(2R,4R)-4-[2-(3-chlorophenoxy)-2-methylpropanamido]-7-methoxy-3,4-dihydro-2H-1-benzopyran-2-yl}benzoic acid], for which it took 1.84 µM to reach a half-maximal effect (EC50) and the Maximum % activity came out at 29.0%.

Regarding `COc1ccc(C2(C(=O)N[C@@H]3C[C@H](c4ccc(C(=O)O)cc4)Oc4cc(OC)ccc43)CC2)cc1` [Example 74, 4-[(2R,4R)-7-methoxy-4-{[1-(4-methoxyphenyl)cyclopropane-1-carbonyl]amino}-3,4-dihydro-2H-1-benzopyran-2-yl]benzoic acid], the EC50 was 0.07 µM and the Maximum % activity was 49.8%.

`COc1ccc2c(c1)O[C@@H](c1ccc(C(=O)O)cc1)C[C@H]2NC(=O)C1(c2ccccc2)CC1` [Example 75, 4-{(2R,4R)-7-methoxy-4-[(1-phenylcyclopropane-1-carbonyl)amino]-3,4-dihydro-2H-1-benzopyran-2-yl}benzoic acid]: the EC50 was found to be 0.95 µM and the Maximum % activity amounted to 37.9%.

Consider `COc1ccc2c(c1)O[C@@H](c1ccc(C(=O)O)cc1)C[C@H]2NC(=O)C1(c2ccc(Cl)cc2)CCC1` [Example 76, 4-[(2R,4R)-4-{[1-(4-chlorophenyl)cyclobutane-1-carbonyl]amino}-7-methoxy-3,4-dihydro-2H-1-benzopyran-2-yl]benzoic acid], for which the EC50 is 2.1 µM and the Maximum % activity is given as 52.0%.

As for `COc1ccc2c(c1)O[C@@H](c1ccc(C(=O)O)cc1)C[C@H]2NC(=O)C(C)(C)Oc1ccc(Cl)c(C)c1` [Example 77, 4-{(2R,4R)-4-[2-(4-chloro-3-methylphenoxy)-2-methylpropanamido]-7-methoxy-3,4-dihydro-2H-1-benzopyran-2-yl}benzoic acid], the concentration for a half-maximal effect (EC50) is more than 20 µM and the Maximum % activity worked out at 8.0%.

For `COc1ccc2c(c1)O[C@@H](c1ccc(C(=O)O)cc1)C[C@H]2NC(=O)C(C)(C)Oc1cccc(C(F)(F)F)c1` [Example 78, 4-[(2R,4R)-7-methoxy-4-{2-methyl-2-[3-(trifluoromethyl)phenoxy]propanamido}-3,4-dihydro-2H-1-benzopyran-2-yl]benzoic acid], a half-maximal response (EC50) required 2.47 µM and the Maximum % activity was 32.0%.

With `COc1ccc2c(c1)O[C@@H](c1ccc(C(=O)O)cc1)C[C@H]2NC(=O)C1(c2ccccc2)CCC(F)(F)C1` (stereo partly drawn) [Example 80, 4-{(2R,4R)-4-[(3,3-difluoro-1-phenylcyclopentane-1-carbonyl)amino]-7-methoxy-3,4-dihydro-2H-1-benzopyran-2-yl}benzoic acid], the EC50 was more than 20 µM and the Maximum % activity is on record as −0.2%.

Take `COc1ccc2c(c1)O[C@@H](c1ccc(C(=O)O)cc1)C[C@H]2NC(=O)C1(c2ccc(F)c(F)c2)CCC1` [Example 81, 4-[(2R,4R)-4-{[1-(3,4-difluorophenyl)cyclobutane-1-carbonyl]amino}-7-methoxy-3,4-dihydro-2H-1-benzopyran-2-yl]benzoic acid]: the EC50 came out at 1.88 µM and the Maximum % activity is 32.0%.

In the case of `COc1ccc2c(c1)O[C@@H](c1ccc(C(=O)O)cc1)C[C@H]2NC(=O)C1(c2ccccc2C(F)(F)F)CCC1` [Example 82, 4-[(2R,4R)-7-methoxy-4-({1-[2-(trifluoromethyl)phenyl]cyclobutane-1-carbonyl}amino)-3,4-dihydro-2H-1-benzopyran-2-yl]benzoic acid], the EC50 came to 1.88 µM and the Maximum % activity worked out at 23.3%.
